Bounds are passed on as bounds.

One assay deals with T1, B-Raf kinase (Homo sapiens, UniProt P15056).
T1 construct: GST (N); purchased Sigma
Description: Biochemical assay for B-Raf.1 (coupled pyruvate kinase/lactate dehydrogenase). The following applies: read-out: BRAF.1 IC50. The gist of the method: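 Reaction rates over the 4–5 h window of a continuous 6 h, 30 °C read were converted to percent inhibition and fitted for IC50. B-Raf (0.13 nM) phosphorylated 30.1 nM MEK with 1 mM ATP; ADP coupled via PK/LDH to NADH loss at 340 nm, 1% DMSO final.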

The next assay concerns Miapaca-2 cells. The assay is described as follows: MiaPaca-2 cell proliferation assay (1), resazurin, 96-well. Type of assay: cell-based. The following applies: Homo sapiens, MIA PaCa-2, inhibition of cell proliferation. In a few lines: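 Three thousand cells per well in DMEM with 10% FBS and 2.5% horse serum exposed to serially diluted compound in triplicate for 67-72 h at 37 °C, 5% CO2. Viability by resazurin (additional 5-6 h), fluorescence ex 540/em 600 nm; IC50 calculated.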
On the technique in general: Alamar Blue is a resazurin reagent that responds to reducing activity.

The next assay deals with WM3629 cells. Description: WM3629 cell proliferation assay (1), resazurin, 96-well. The settings on record: inhibition of cell proliferation. Format: cell-based. On the procedure: WM3629 Cell Proliferation Assay (1)
WM3629 cells (#WM3629-01-0001) are obtained from Rockland Immunochemicals Inc (Gilbertsville, PA). Briefly, cells were grown in MCDB 153 medium (Sigma, #M7403, St. Louis, MO) supplemented with 20% Leibovitz's L-15 (ThermoFisher #11415-064, Waltham, MA), 2% heat inactivated fetal bovine serum (ThermoFisher, #A3840001, Waltham, MA), 5 μg/mL Insulin (Bovine Pancreas) (Sigma, #I0516, St. Louis, MO), 1.68 mM Calcium Chloride (Sigma, #C-34006, St. Louis, MO) and 1% Penicillin/Streptomycin/L-Glutamine (ThermoFisher #10378016, Waltham, MA) at 37° C., 5% CO2, and 95% humidity. Cells are expanded until reaching 70-95% confluency at which point they are subcultured or harvested for assay use. A serial dilution of test compound is dispensed into a 96-well black clear bottom plate in triplicate. Four thousand five hundred cells are added per well in 200 μL complete growth medium in the 96-well plate. Plates are incubated for 67-72 hours at 37° C., 5% CO2, and 95% humidity. At the end of the incubation, 40 μL of a 440 μM solution of resazurin (Sigma, #199303, St. Louis, MO) in PBS is added to each well of the plate and plates are incubated for an additional 6-7 hours at 37° C., 5% CO2, and 95% humidity. Plates are read on a Synergy2 or equivalent reader (Biotek, Winooski VT) using an excitation of 540 nm and an emission of 600 nm. Data is analyzed using Prism software (GraphPad, San Diego, CA) to calculate IC50 values.

For another assay, the system named is H2405 cells. The assay is described as follows: H2405 cell proliferation assay (2), resazurin, 384-well. The following applies: Homo sapiens, NCI-H2405, inhibition of cell proliferation, 67-72 h. Format: cell-based. On the procedure: H2405 Cell Proliferation Assay (2)
H2405 cells (catalog #CRL-5994) are obtained from the American Type Culture Collect (ATTC, Manassas, VA). Briefly, cells were grown in RPMI 1640 supplemented with 5% characterized fetal bovine serum (Invitrogen, Carlsbad, CA) and 1% Penicillin/Streptomycin/L-Glutamine at 37° C., 5% CO2, and 95% humidity. Cells are expanded until reaching 70-95% confluency at which point they are sub-cultured or harvested for assay use. A serial dilution of test compound is dispensed into a 384-well black clear bottom plate in triplicate. Seven hundred fifty cells are added per well in 50 μL complete growth medium in the 384-well plate. Plates are incubated for 67-72 h at 37° C., 5% CO2, and 95% humidity. At the end of the incubation, 10 μL of a 440 μM solution of resazurin (Sigma, St. Louis, MO) in PBS is added to each well of the plate and plates are incubated for an additional 5-6 h at 37° C., 5% CO2, and 95% humidity. Plates are read on a Synergy2 or equivalent reader (Biotek, Winooski VT) using an excitation of 540 nm and an emission of 600 nm. Data is analyzed using Prism software (GraphPad, San Diego, CA) to calculate IC50 values

T1 sequence (P15056 416-766): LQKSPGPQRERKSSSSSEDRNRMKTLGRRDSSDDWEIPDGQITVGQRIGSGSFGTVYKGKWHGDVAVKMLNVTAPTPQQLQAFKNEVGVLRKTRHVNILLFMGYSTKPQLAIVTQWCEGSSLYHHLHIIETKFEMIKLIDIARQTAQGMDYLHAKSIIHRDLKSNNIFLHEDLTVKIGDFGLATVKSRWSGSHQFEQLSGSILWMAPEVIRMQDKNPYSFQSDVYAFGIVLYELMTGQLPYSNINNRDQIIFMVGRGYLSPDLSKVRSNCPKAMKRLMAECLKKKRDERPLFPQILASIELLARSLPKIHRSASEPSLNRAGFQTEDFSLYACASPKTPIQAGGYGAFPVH

For the compound `Cc1cc(F)c(NC(=O)NCC[C@@H]2CCO2)cc1-c1cc(OCCO)nc(-c2ccnc3[nH]ncc23)c1` [Example 89], the half-inhibitory concentration (IC50) (usually the concentration that gives 50% inhibition) at B-Raf kinase is over 1 µM; with Miapaca-2 cells, 1 to 10 µM. The like results for `Cc1cc(F)c(NC(=O)N2CCC(C)(C#N)CC2)cc1-c1cc(OCCO)nc(-c2ccnc3[nH]ncc23)c1` [Example 92] were, in that order, 0.5 to 1 µM and 1 to 10 µM. `COC(=O)Nc1cc(-c2cncc(-c3cc(NC(=O)N4CC[C@H](C(F)(F)F)C4)ccc3C)c2)ncn1` [Example 224]: the IC50 in the assay on WM3629 cells and in the assay on H2405 cells was at most 0.1 µM throughout.

In the case of `COC(C)(C)CCNC(=O)Nc1cc(-c2cc(OCCO)nc(-c3ccnc4[nH]ccc34)c2)c(C)cc1F` [Example 90], the IC50 was at most 0.1 µM at B-Raf kinase and 1 to 10 µM in the assay with Miapaca-2 cells. `Cc1ccc(NC(=O)N2CC[C@H](C)C2)cc1-c1cncc(-c2cc(NC(=O)C3CC3)ncn2)c1` [Example 227]: the IC50 in the assay with H2405 cells is 1 to 10 µM. Turning to `CNC(=O)c1cc(-c2cncc(-c3cc(NC(=O)N4CC[C@H](C(F)(F)F)C4)ccc3C)c2)ncn1` [Example 220], in the assay on Miapaca-2 cells, the concentration for half-maximal inhibition (IC50) was 1 to 10 µM. Consider `CNC(=O)c1cc(-c2cc(-c3cc(NC(=O)N4CC[C@H](C(C)C)C4)ccc3C)ccn2)ccn1` [Example 225], for which the IC50 with WM3629 cells is at most 0.1 µM.

For `Cc1cc(F)c(NC(=O)N[C@@H]2CC[C@H](F)C2)cc1-c1cc(OCCO)nc(-c2ccnc3[nH]ncc23)c1` [Example 88], the IC50 on B-Raf kinase fell in the range of 0.5 to 1 µM; in the assay on Miapaca-2 cells it was 1 to 10 µM. Take `CNC(=O)c1cc(-c2cc(-c3cc(NC(=O)N4CC[C@H](C(F)(F)F)C4)ccc3C)ccn2)ccn1` [Example 215]: the values for the IC50 in the assay with WM3629 cells and with H2405 cells were at most 0.1 µM and 0.1 to 0.5 µM, respectively.

Turning to `CNC(=O)c1cc(-c2cncc(-c3cc(NC(=O)N4CC[C@H](C(C)C)C4)ccc3C)c2)ccn1` [Example 229], the IC50 with H2405 cells is 0.5 to 1 µM. For `CNC(=O)c1cc(-c2cncc(-c3cc(NC(=O)N4CC[C@H](C(F)(F)F)C4)ccc3C)c2)ccn1` [Example 228], the IC50 in the assay on H2405 cells was 0.1 to 0.5 µM. For the compound `COC(C)(C)CCNC(=O)Nc1cc(-c2cc(OCCO)nc(-c3ccnc4[nH]ncc34)c2)c(C)cc1F` [Example 91], the IC50 at B-Raf kinase was at most 0.1 µM; in the assay on Miapaca-2 cells, 1 to 10 µM. The like results for `Cc1cc(F)c(NC(=O)NCCC2(C)CC2)cc1-c1cc(OCCO)nc(-c2ccnc3[nH]ncc23)c1` [Example 87] were, in that order, at most 0.1 µM and 1 to 10 µM. The like results for `COC(=O)Nc1cc(-c2cccc(-c3cc(NC(=O)NCCC(C)(C)OC)c(F)cc3C)c2)ccn1` [Example 85] were, in that order, at most 0.1 µM and 0.5 to 1 µM.

These data come from patent US20230357179A1, “RAF KINASE INHIBITORS AND METHODS OF USE THEREOF” (Deciphera Pharmaceuticals, LLC, priority 2021, published 2023).
